Data as given in patent US11680060B2, “Bicycloheptane pyrrolidine orexin receptor agonists” (Merck Sharp & Dohme LLC, priority 2020, dated 2023).
Like-named read-outs stand apart in the source and are kept apart here.

Biological target: human OX2R (Homo sapiens (Human), UniProt O43614)
Test: IPOne (IP-1) assay in CHO cells expressing human OX2R
Format: cell-based
Details: for Emax: CHO; for IC50: CHO cells expressing human OX2R, IP-One detection, 2 hours incubation, EC50 = inflection point of four parameter logistic fit, read-out: hOX2R_IP_IC50
How it was run: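 CHO cells stably expressing human OX2R were stimulated with compound (10-point ½-log dilutions) for 2 h at 37 °C. IP-1 accumulation was read by HTRF (IP-One, 665/620 nm). EC50 from a four-parameter fit; % effect relative to 1 μM reference agonist control.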

[1] = percentage of mean max effect of a reference compound at 1 uM (100% activity by comparison to Orexin A), human OX2R, read-out: Emax (%)
[2] = percentage of mean max effect of a reference compound at 1 uM (100% activity by comparison to Orexin A), human OX2R

Chain of human OX2R (O43614 whole entry): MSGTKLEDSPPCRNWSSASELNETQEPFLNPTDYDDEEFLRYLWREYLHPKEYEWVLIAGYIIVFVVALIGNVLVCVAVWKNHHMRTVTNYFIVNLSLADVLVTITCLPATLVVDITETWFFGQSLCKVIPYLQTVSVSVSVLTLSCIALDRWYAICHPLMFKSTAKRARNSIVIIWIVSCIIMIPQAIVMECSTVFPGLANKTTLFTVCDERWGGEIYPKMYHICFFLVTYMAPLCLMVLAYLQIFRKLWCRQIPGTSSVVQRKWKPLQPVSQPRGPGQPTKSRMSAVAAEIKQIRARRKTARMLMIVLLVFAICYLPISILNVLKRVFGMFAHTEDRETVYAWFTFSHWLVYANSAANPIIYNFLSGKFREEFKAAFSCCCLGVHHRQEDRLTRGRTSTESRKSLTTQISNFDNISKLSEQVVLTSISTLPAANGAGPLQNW

COC(=O)N1[C@H](C)C[C@H](NS(=O)(=O)C(C)C)[C@@H]1CO[C@H]1CC[C@@]2(c3ncc(F)cn3)C[C@H]2C1 [Example 38, methyl (2R,3S,5R)-2-((((1S,3S,6R)-6-(5-fluoropyrimidin-2-yl)bicyclo[4.1.0]heptan-3-yl)oxy)methyl)-5-methyl-3-((1-methylethyl)sulfonamido)pyrrolidine-1-carboxylate]
Emax [1]: 100%

COC(=O)N1[C@H](C)C[C@H](NS(=O)(=O)CF)[C@@H]1COC1CCC2(c3ncc(Br)cn3)CC2C1 (stereo partly drawn) [Example 89, methyl (2R,3S,5R)-2-(((6-(5-bromopyrimidin-2-yl)bicyclo[4.1.0]heptan-3-yl)oxy)methyl)-3-((fluoromethyl)sulfonamido)-5-methylpyrrolidine-1-carboxylate]
Emax [1]: 104%

COC(=O)N1[C@H](C(F)F)C[C@H](NS(=O)(=O)CF)[C@@H]1CO[C@H]1CC[C@@]2(c3ncc(Cl)cn3)C[C@H]2C1 (single isomer, unassigned) [Example 115]
IC50: 1.1 nM | Emax [1]: 103%

COC(=O)N1[C@H](C)C[C@H](NS(=O)(=O)N(C)C)[C@@H]1COC1CCC2(c3ncccn3)CC2C1 (single isomer, unassigned) [Example 186]
IC50: 142 nM | Emax [1]: 99.5%

COC(=O)N1[C@H](C)C[C@H](NS(=O)(=O)C2CC2)[C@@H]1CO[C@H]1CC[C@@]2(c3ncc(F)cn3)C[C@H]2C1 [Example 42, methyl (2R,3S,5R)-3-(cyclopropanesulfonamido)-2-((((1S,3S,6R)-6-(5-fluoropyrimidin-2-yl)bicyclo[4.1.0]heptan-3-yl)oxy)methyl)-5-methylpyrrolidine-1-carboxylate]
Emax [1]: 103%

C[C@@H]1C[C@H](NS(C)(=O)=O)[C@H](CO[C@H]2CC[C@@]3(c4ncc(F)cn4)C[C@H]3C2)N1C(=O)OCC1CC(F)C1 (stereo partly drawn) [Example 49, (3-fluorocyclobutyl)methyl (2R,3S,5R)-2-((((1S,3S,6R)-6-(5-fluoropyrimidin-2-yl)bicyclo[4.1.0]heptan-3-yl)oxy)methyl)-5-methyl-3-(methylsulfonamido)pyrrolidine-1-carboxylate]
Emax: 103%

COC(=O)N1[C@H](C)C[C@H](NS(C)(=O)=O)[C@@H]1COC1CCC2(c3ncc(F)cn3)CC2C1 (stereo partly drawn) [Example 135, methyl (2R,3S,5R)-2-(((6-(5-fluoropyrimidin-2-yl)bicyclo[4.1.0]heptan-3-yl)oxy)methyl)-5-methyl-3-(methylsulfonamido)pyrrolidine-1-carboxylate]
Emax [1]: 99.5%

COC(=O)N1[C@H](C)C[C@H](NS(C)(=O)=O)[C@@H]1COC1CC[C@@]2(c3nccs3)C[C@H]2C1 (single isomer, unassigned) [Example 146]
IC50: 50.7 nM | Emax [1]: 101%

COC(=O)N1[C@H](C)C[C@H](NS(C)(=O)=O)[C@@H]1COC1CCC2(c3ncccn3)CC2C1 (single isomer, unassigned) [Example 17]
IC50: 2260 nM | Emax (%) [2]: 89.7%

C[C@@H]1C[C@H](NS(C)(=O)=O)[C@H](CO[C@H]2CC[C@@]3(c4ncc(F)cn4)C[C@H]3C2)N1C(=O)OCC(C)(F)F [Example 64, 2,2-difluoropropyl (2R,3S,5R)-2-((((1S,3S,6R)-6-(5-fluoropyrimidin-2-yl)bicyclo[4.1.0]heptan-3-yl)oxy)methyl)-5-methyl-3-(methylsulfonamido)pyrrolidine-1-carboxylate]
Emax [1]: 101%

C[C@@H]1C[C@H](NS(C)(=O)=O)[C@H](CO[C@H]2CC[C@@]3(c4ncc(F)cn4)C[C@H]3C2)N1C(=O)OC[C@H]1[C@H](C)C1(F)F [Example 55, ((1R,3S)-2,2-difluoro-3-methylcyclopropyl)methyl (2R,3S,5R)-2-((((1S,3S,6R)-6-(5-fluoropyrimidin-2-yl)bicyclo[4.1.0]heptan-3-yl)oxy)methyl)-5-methyl-3-(methylsulfonamido)pyrrolidine-1-carboxylate]
Emax [1]: 105%

COC(=O)N1[C@H](C)C[C@H](NS(C)(=O)=O)[C@@H]1COC1CCC2(c3ncc(Cl)cn3)CC2C1 (stereo partly drawn) [Example 140, methyl (2R,3S,5R)-2-(((6-(5-chloropyrimidin-2-yl)bicyclo[4.1.0]heptan-3-yl)oxy)methyl)-5-methyl-3-(methylsulfonamido)pyrrolidine-1-carboxylate]
Emax [1]: 103%

COC(=O)N1[C@H](C)C[C@H](NS(=O)(=O)C(F)F)[C@@H]1CO[C@H]1CC[C@@]2(c3ncccn3)C[C@H]2C1 [Example 68, methyl (2R,3S,5R)-3-((difluoromethyl)sulfonamido)-5-methyl-2-((((1S,3S,6R)-6-(pyrimidin-2-yl)bicyclo[4.1.0]heptan-3-yl)oxy)methyl)pyrrolidine-1-carboxylate]
Emax [1]: 99.7%

COC(=O)N1[C@H](C)C[C@H](NS(=O)(=O)N(C)C)[C@@H]1COC1CCC2(c3ncccn3)C(C1)C2(F)F (stereo partly drawn) [Example 7, methyl (2R,3S,5R)-2-(((7,7-difluoro-6-(pyrimidin-2-yl)bicyclo[4.1.0]heptan-3-yl)oxy)methyl)-3-((N,N-dimethylsulfamoyl)amino)-5-methylpyrrolidine-1-carboxylate]
Emax [1]: 39.4%

CC(C)OC(=O)N1[C@H](C)C[C@H](NS(=O)(=O)CF)[C@@H]1CO[C@H]1CC[C@@]2(c3ncc(Cl)cn3)C[C@H]2C1 (single isomer, unassigned) [Example 95]
IC50: 1.8 nM | Emax [1]: 101%

C[C@@H]1C[C@H](NS(C)(=O)=O)[C@H](CO[C@H]2CC[C@@]3(c4ncc(F)cn4)C[C@H]3C2)N1C(=O)OCC1(F)CCC1 [Example 53, (1-fluorocyclobutyl)methyl (2R,3S,5R)-2-((((1S,3S,6R)-6-(5-fluoropyrimidin-2-yl)bicyclo[4.1.0]heptan-3-yl)oxy)methyl)-5-methyl-3-(methylsulfonamido)pyrrolidine-1-carboxylate]
Emax [1]: 104%

COC(=O)N1[C@H](C)C[C@H](NS(=O)(=O)C(F)(F)F)[C@@H]1CO[C@@H]1CC[C@]2(c3ncc(F)cn3)C[C@@H]2C1 [Example 44, methyl (2R,3S,5R)-2-((((1R,3R,6S)-6-(5-fluoropyrimidin-2-yl)bicyclo[4.1.0]heptan-3-yl)oxy)methyl)-5-methyl-3-((trifluoromethyl)sulfonamido)pyrrolidine-1-carboxylate]
Emax [1]: 103%

COC(=O)N1[C@H](C)C[C@H](NS(=O)(=O)N2CCC2)[C@@H]1CO[C@@H]1CC[C@]2(c3ncc(F)cn3)C[C@@H]2C1 [Example 43, methyl (2R,3S,5R)-3-(azetidine-1-sulfonamido)-2-((((1R,3R,6S)-6-(5-fluoropyrimidin-2-yl)bicyclo[4.1.0]heptan-3-yl)oxy)methyl)-5-methylpyrrolidine-1-carboxylate]
Emax [1]: 97.8%

COC(=O)N1[C@H](C)C[C@H](NS(=O)(=O)CCl)[C@@H]1CO[C@H]1CC[C@@]2(c3ncc(F)cn3)C[C@H]2C1 [Example 37, methyl (2R,3S,5R)-3-((chloromethyl)sulfonamido)-2-((((1S,3S,6R)-6-(5-fluoropyrimidin-2-yl)bicyclo[4.1.0]heptan-3-yl)oxy)methyl)-5-methylpyrrolidine-1-carboxylate]
Emax [1]: 103%

COC(=O)N1[C@H](C)C[C@H](NS(=O)(=O)N(C)C)[C@@H]1COC1CCC2(c3cnccn3)CC2C1 (single isomer, unassigned) [Example 14]
Emax (%) [2]: 93.5%

COC(=O)N1[C@H](C)C[C@H](NS(=O)(=O)N(C)C)[C@@H]1COC1CCC2(c3cnccn3)CC2C1 (stereo partly drawn) [Example 10, methyl (2R,3S,5R)-3-((N,N-dimethylsulfamoyl)amino)-5-methyl-2-(((6-(pyrazin-2-yl)bicyclo[4.1.0]heptan-3-yl)oxy)methyl)pyrrolidine-1-carboxylate]
Emax [1]: 85.6%

CC(C)OC(=O)N1[C@H](C)C[C@H](NS(=O)(=O)CF)[C@@H]1COC1CCC2(c3ncc(Cl)cn3)CC2C1 (stereo partly drawn) [Example 107, isopropyl (2R,3S,5R)-2-(((6-(5-chloropyrimidin-2-yl)bicyclo[4.1.0]heptan-3-yl)oxy)methyl)-3-((fluoromethyl)sulfonamido)-5-methylpyrrolidine-1-carboxylate]
Emax [1]: 104%

COC(=O)N1[C@@H]2CCC[C@@H]2[C@H](NS(=O)(=O)CF)[C@@H]1COC1CCC2(c3ncc(F)cn3)CC2C1 (stereo partly drawn) [Example 130, methyl (2R,3S,3aS,6aR)-3-((fluoromethyl)sulfonamido)-2-(((6-(5-fluoropyrimidin-2-yl)bicyclo[4.1.0]heptan-3-yl)oxy)methyl)hexahydrocyclopenta[b]pyrrole-1(2H)-carboxylate]
Emax [1]: 101%

COC(=O)N1[C@H](C)C[C@H](NS(C)(=O)=O)[C@@H]1CO[C@@H]1CC[C@]2(c3ncccn3)C[C@@H]2C1 (single isomer, unassigned) [Example 180]
IC50: 100 nM | Emax [1]: 99.7%

CC(C)OC(=O)N1[C@H](C)C[C@H](NS(=O)(=O)C(F)F)[C@@H]1CO[C@H]1CC[C@@]2(c3ncc(F)cn3)C[C@H]2C1 (single isomer, unassigned) [Example 90]
IC50: 1.2 nM | Emax [1]: 101%

CC(C)OC(=O)N1CCC[C@H](NS(=O)(=O)C(F)(F)F)[C@@H]1COC1CC[C@@]2(c3ncc(F)cn3)CC2C1 (stereo partly drawn) [Example 123, isopropyl (2R,3S)-2-(((6-(5-fluoropyrimidin-2-yl)bicyclo[4.1.0]heptan-3-yl)oxy)methyl)-3-((trifluoromethyl)sulfonamido)piperidine-1-carboxylate]
Emax [1]: 102%

COC(=O)N1[C@H](C)C[C@H](NS(=O)(=O)N(C)C)[C@@H]1COC1CCC2(c3ccc(C#N)cc3)CC2C1 (stereo partly drawn) [Example 5, methyl (2R,3S,5R)-2-(((6-(4-cyanophenyl)bicyclo[4.1.0]heptan-3-yl)oxy)methyl)-3-((N,N-dimethylsulfamoyl)amino)-5-methylpyrrolidine-1-carboxylate]
Emax [1]: 99.8%
